The assay has as its system mouse ear. Put plainly: mouse ear swelling test (MEST). In kind it is in vivo. Conditions: BALB/c mouse. How it is done: To evaluate an effect of relieving skin irritation caused by a dye and for preventing or inhibiting inflammation caused by a dye, the mouse ear swelling test (MEST) using a mouse is carried out in the manner as described below.
A 7 weeks-aged mouse subject (BALC/c) is obtained and subjected to quarantine and adaptation for a period of 10 days. Then, the mouse is dehaired at its abdominal portion, and a main ingredient of dye, i.e. 3% paraphenylene diamine (PPD) is applied thereto in combination with a monosaccharide (glucose, galactose or fructose) or disaccharide (maltose, lactose or sucrose) for 7 days three times a day. As a control, each of dimethyl sulfoxide (DMSO) solvent and 3% PPD is applied. Twenty-four hours after the final application, the mouse ear is weighed. After weighing, the mouse ear is fixed in formalin and subjected to hematoxylin & eosin (H&E) staining for a histopathological test. Then, the thickness of the mouse ear is determined. Herein, the weight of the mouse ear is measured by biopsy of the ear of the mouse subject (Balb/c), to which each test sample is applied, using a 6 mm punch. The thickness of the mouse ear is determined by measuring the thickness of the ear of the mouse subject (Balb/c) stained after weighing the mouse ear weight by using a microscope.

Take `Nc1ccc(N)cc1` [PPD (3%), paraphenylene diamine]: the Ear thickness (3% PPD alone or in combination with saccharide applied for 7 days three times a day, formalin-fixed, H&E stained ear measured by microscope) is given as 433.28 ± 11.57 μm. Besides, the Ear weight (3% PPD alone or in combination with saccharide applied to dehaired abdominal portion for 7 days three times a day, ear weighed 24 h after final application, 6 mm punch biopsy) was found to be 14.74 ± 0.23 mg.

The record behind these values is patent US20130225522A1, “COMPOSITION FOR RELIEVING STIMULUS OF SKIN CAUSED BY DYE” (Amorepacific Corporation, priority 2009, published 2013).
